According to US20230286968A1, “ARYLOXAZOLO SPIRAL RING DERIVATIVES FOR THE TREATMENT AND PROPHYLAXIS OF HEPATITIS B VIRUS INFECTION” (Hoffmann-La Roche Inc., priority 2020, published 2023):

Key:
HBsAg = assay: PHH natural infection assay, HBsAg (alphalisa); format: cell-based, HBV; details: Hepatitis B virus, Hepatocyte, read-out: HBsAg IC50, HBV-infected primary human hepatocytes, supernatant, alphalisa
Experimental: (§1) Detailed procedures regarding primary human hepatocyte (PHH) HBV natural infection assay are described as below. One tube of frozen PHH (10 million cells) is thawed in 37° C. water bath and then transferred to 20 mL of PHH thawing medium (Sigma, InVitroGRO HT Medium, Cat. S03319) with gently mixing. The cells were then centrifuged at […] for 5 min, the supernatant was discarded and the tube was refilled with 25 mL of PHH plating medium (Sigma, InVitroGRO CP Medium, Cat. S03317). The tube was shaken very gently to re-suspend all cells, and then 50 μL of cells were transferred to each well 384-well collagen I coated plate with appropriate liquid handling equipment, e.g. Integra VIAFLO384 or Agilent Bravo. The cells were then cultured for 24 hours in a cell incubator. For HBV infection, after PHH attachment on the culture plate, the plating medium was removed and replenished with PHH culture medium containing HBV virus. The PHH culture medium was prepared with Dulbecco's Modified Eagle Medium (DMEM)/F12 (1:1 in volume ratio) containing 10% fetal bovine serum (Gibco, Cat. 10099141), 5 ng/mL human epidermal growth factor (Gibco, Cat.PHG0311L), 20 ng/mL dexamethasone (Sigma, Cat.D4902-100 mg), 250 ng/mL human recombinant insulin (Gibco, Cat.41400045) and 100 U/mL penicillin. HBV virus at 200 genome equivalent (GE) per cell with 4% PEG8000 (Sigma, Cat.P1458) containing culture medium were added to the PHH culture medium for infection. The cells were then cultured for 24 hours in cell incubator. Then the cell culture supernatant was removed. The HBV-infected PHH were cultured with sandwich culture method with PHH culture medium containing […] and 0.25 mg/mL matrix gel for 72 hours. The supernatant was then refreshed with PHH culture medium containing different concentrations of testing compounds for two times with 72-hour interval. At the end of treatment, the supernatant was collected for viral markers measurements, including HBsAg, HBeAg, HBV DNA and cytotoxicity. HBsAg and HBeAg were detected using alphalisa method using their specific antibodies. For HBV DNA detection, HBV DNA Quantitative Fluorescence Diagnostic Kit (Sansure Biotech Inc.) was used following the manufacture's protocol. Cytotoxicity was determined using Cell Counting Kit-8 (CCK8, Dojindo Molecular Technologies, Inc.).
(§2) The compounds of the present invention were tested for their capacity to inhibit HBsAg and HBeAg as described herein.

[1] = Cytotoxicity in PHH natural infection assay (Cell Counting Kit-8); format: cell-based; details: HBV-infected primary human hepatocytes, CCK8
Experimental: as §1

HBeAg = assay: PHH natural infection assay, HBeAg (alphalisa); format: cell-based, HBV; details: Hepatitis B virus, Hepatocyte, read-out: HBeAg IC50, HBV-infected primary human hepatocytes, supernatant, alphalisa
Experimental: as §1, §2

Structure (SMILES)	IC50 (HBsAg) [µM]	CC50 at 144 h [1] [µM]	IC50 (HBeAg) [µM]
COc1cc(C(=O)NC2CC3(C2)CC(c2nc4cc(Cl)ccc4o2)C3)ccn1 (stereo not drawn) [Example 17, N-[6-(5-chloro-1,3-benzoxazol-2-yl)spiro[3.3]heptan-2-yl]-2-methoxy-pyridine-4-carboxamide]	5.45	> 10	4.48
N#Cc1cc(C(=O)NC2CC3(C2)CC(c2nc4cc(Cl)ccc4o2)C3)ccn1 (stereo not drawn) [Example 18, N-[6-(5-chloro-1,3-benzoxazol-2-yl)spiro[3.3]heptan-2-yl]-2-cyano-pyridine-4-carboxamide]	4.86	> 10	4.87
NS(=O)(=O)c1cc(C(=O)NC2CC3(C2)CC(c2nc4cc(Cl)ccc4o2)C3)ccn1 (stereo not drawn) [Example 19, N-[6-(5-chloro-1,3-benzoxazol-2-yl)spiro[3.3]heptan-2-yl]-2-sulfamoyl-pyridine-4-carboxamide]	2.25	> 10	1.24
CC(C)Oc1cc(C(=O)NC2CC3(C2)CC(c2nc4cc(Cl)ccc4o2)C3)ccn1 (stereo not drawn) [Example 20, N-[6-(5-chloro-1,3-benzoxazol-2-yl)spiro[3.3]heptan-2-yl]-2-isopropoxy-pyridine-4-carboxamide]	1.92	> 10	1.26
O=C(NC1CC2(C1)CC(c1nc3cc(Cl)ccc3o1)C2)c1ccnc(C(F)(F)F)c1 (stereo not drawn) [Example 21, N-[6-(5-chloro-1,3-benzoxazol-2-yl)spiro[3.3]heptan-2-yl]-2-(trifluoromethyl)pyridine-4-carboxamide]	1.82	82	1.98
CNS(=O)(=O)Nc1cc(C(=O)NC2CC3(C2)CC(c2nc4cc(Cl)ccc4o2)C3)ccn1 (stereo not drawn) [Example 22, N-[6-(5-chloro-1,3-benzoxazol-2-yl)spiro[3.3]heptan-2-yl]-2-(methylsulfamoylamino)pyridine-4-carboxamide]	4.94	> 10	4.38
CS(=O)(=O)c1cc(C(=O)NC2CC3(C2)CC(c2nc4cc(Cl)ccc4o2)C3)ccn1 (stereo not drawn) [Example 23, N-[6-(5-chloro-1,3-benzoxazol-2-yl)spiro[3.3]heptan-2-yl]-2-methylsulfonyl-pyridine-4-carboxamide]	0.57	94.1	0.49
CS(=O)(=O)c1cncc(C(=O)NC2CC3(C2)CC(c2nc4cc(Cl)ccc4o2)C3)c1 (stereo not drawn) [Example 24, N-[6-(5-chloro-1,3-benzoxazol-2-yl)spiro[3.3]heptan-2-yl]-5-methylsulfonyl-pyridine-3-carboxamide]	5.99	> 100	3.73
O=C(NC1CC2(C1)CC(c1nc3cc(Cl)ccc3o1)C2)c1ccnc(S(=O)(=O)C2COC2)c1 (stereo not drawn) [Example 25, N-[6-(5-chloro-1,3-benzoxazol-2-yl)spiro[3.3]heptan-2-yl]-2-(oxetan-3-ylsulfonyl)pyridine-4-carboxamide]	4.18	> 10	2.53
CCS(=O)(=O)c1cc(C(=O)NC2CC3(C2)CC(c2nc4cc(Cl)ccc4o2)C3)ccn1 (stereo not drawn) [Example 26, N-[6-(5-chloro-1,3-benzoxazol-2-yl)spiro[3.3]heptan-2-yl]-2-ethylsulfonyl-pyridine-4-carboxamide]	0.28	74.1	0.19
CC(C)(C)C(=O)NC1CC2(C1)CC(c1nc3cc(Cl)ccc3o1)C2 (stereo not drawn) [Example 27, N-[6-(5-chloro-1,3-benzoxazol-2-yl)spiro[3.3]heptan-2-yl]-2,2-dimethyl-propanamide]	9.77	> 100	9.75
CC(C)CC(=O)NC1CC2(C1)CC(c1nc3cc(Cl)ccc3o1)C2 (stereo not drawn) [Example 28, N-[6-(5-chloro-1,3-benzoxazol-2-yl)spiro[3.3]heptan-2-yl]-3-methyl-butanamide]	2.54	> 100	2.28
O=C(NC1CC2(C1)CC(c1nc3cc(Cl)ccc3o1)C2)C1CC(C(F)(F)F)C1 (stereo not drawn) [Example 29, N-[6-(5-chloro-1,3-benzoxazol-2-yl)spiro[3.3]heptan-2-yl]-3-(trifluoromethyl)cyclobutanecarboxamide]	4.67	> 100	3.82
CN1CC(C(=O)NC2CC3(C2)CC(c2nc4cc(Cl)ccc4o2)C3)CC1=O (stereo not drawn) [Example 30, N-[6-(5-chloro-1,3-benzoxazol-2-yl)spiro[3.3]heptan-2-yl]-1-methyl-5-oxo-pyrrolidine-3-carboxamide]	3.89	> 100	2.65
CC(C)(C)N1CC(C(=O)NC2CC3(C2)CC(c2nc4cc(Cl)ccc4o2)C3)CC1=O (stereo not drawn) [Example 31, 1-tert-butyl-N-[6-(5-chloro-1,3-benzoxazol-2-yl)spiro[3.3]heptan-2-yl]-5-oxo-pyrrolidine-3-carboxamide]	7.87	> 100	5.24
O=C(NC1CC2(C1)CC(c1nc3cc(Cl)ccc3o1)C2)C1CC(=O)N(c2ccccc2)C1 (stereo not drawn) [Example 32, N-[6-(5-chloro-1,3-benzoxazol-2-yl)spiro[3.3]heptan-2-yl]-5-oxo-1-phenyl-pyrrolidine-3-carboxamide]	8.27	> 100	5.44
Cc1c(Cl)cccc1N1CC(C(=O)NC2CC3(C2)CC(c2nc4cc(Cl)ccc4o2)C3)CC1=O (stereo not drawn) [Example 33, N-[6-(5-chloro-1,3-benzoxazol-2-yl)spiro[3.3]heptan-2-yl]-1-(3-chloro-2-methyl-phenyl)-5-oxo-pyrrolidine-3-carboxamide]	3.24	42.8	3.07
CN1CCC(C(=O)NC2CC3(C2)CC(c2nc4cc(Cl)ccc4o2)C3)CC1=O (stereo not drawn) [Example 34, N-[6-(5-chloro-1,3-benzoxazol-2-yl)spiro[3.3]heptan-2-yl]-1-methyl-2-oxo-piperidine-4-carboxamide]	8.69	> 100	4.42
CN1CC(CC(=O)NC2CC3(C2)CC(c2nc4cc(Cl)ccc4o2)C3)CC1=O (stereo not drawn) [Example 35, N-[6-(5-chloro-1,3-benzoxazol-2-yl)spiro[3.3]heptan-2-yl]-2-(1-methyl-5-oxo-pyrrolidin-3-yl)acetamide]	9.93	> 10	7.28
CN1C(=O)CCC1CC(=O)NC1CC2(C1)CC(c1nc3cc(Cl)ccc3o1)C2 (stereo not drawn) [Example 36, N-[6-(5-chloro-1,3-benzoxazol-2-yl)spiro[3.3]heptan-2-yl]-2-(1-methyl-5-oxo-pyrrolidin-2-yl)acetamide]	4.05	> 10	3.72
O=C1CCC(CC(=O)NC2CC3(C2)CC(c2nc4cc(Cl)ccc4o2)C3)N1 (stereo not drawn) [Example 37, N-[6-(5-chloro-1,3-benzoxazol-2-yl)spiro[3.3]heptan-2-yl]-2-(5-oxopyrrolidin-2-yl)acetamide]	6	> 10	3.75
NS(=O)(=O)CCC(=O)NC1CC2(C1)CC(c1nc3cc(Cl)ccc3o1)C2 (stereo not drawn) [Example 38, N-[6-(5-chloro-1,3-benzoxazol-2-yl)spiro[3.3]heptan-2-yl]-3-sulfamoyl-propanamide]	9.48	> 10	5.49
